Assay results reported in article PMC8887546, “Design and Synthesis of Brain Penetrant Glycopeptide Analogues of PACAP With Neuroprotective Potential for Traumatic Brain Injury and Parkinsonism” (Frontiers in drug discovery, 2022).
Where two headings read alike, the source gives them in different places.

Columns and labels:
human VPAC1 receptor = molecular target: T1, human VPAC1 receptor (Homo sapiens, UniProt P32241); test: cAMP stimulation in CHO cells expressing VPAC1; type: cell-based
T1 construct: expressed in transfected cells; host or cells: CHO cells (G418 selection)
T1 sequence (P32241 31-457): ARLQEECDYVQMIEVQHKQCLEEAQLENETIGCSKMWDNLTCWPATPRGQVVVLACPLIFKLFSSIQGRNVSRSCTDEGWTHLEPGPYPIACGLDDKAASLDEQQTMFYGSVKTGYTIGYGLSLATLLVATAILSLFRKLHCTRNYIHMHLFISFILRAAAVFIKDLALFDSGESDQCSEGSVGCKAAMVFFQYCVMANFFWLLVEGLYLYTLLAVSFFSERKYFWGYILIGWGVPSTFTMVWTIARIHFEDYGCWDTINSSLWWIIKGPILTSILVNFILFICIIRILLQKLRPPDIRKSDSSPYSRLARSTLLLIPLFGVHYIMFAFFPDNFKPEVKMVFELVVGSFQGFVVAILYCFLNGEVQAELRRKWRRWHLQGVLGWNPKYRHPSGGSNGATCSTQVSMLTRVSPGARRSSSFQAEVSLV

human PAC1 receptor = molecular target: T2, human PAC1 receptor (Homo sapiens, UniProt P41586); test: cAMP stimulation in CHO cells expressing PAC1; type: cell-based; details: for Emax: CHO
T2 construct: expressed in transfected cells; host or cells: CHO cells (G418 selection)
T2 sequence (P41586 21-468): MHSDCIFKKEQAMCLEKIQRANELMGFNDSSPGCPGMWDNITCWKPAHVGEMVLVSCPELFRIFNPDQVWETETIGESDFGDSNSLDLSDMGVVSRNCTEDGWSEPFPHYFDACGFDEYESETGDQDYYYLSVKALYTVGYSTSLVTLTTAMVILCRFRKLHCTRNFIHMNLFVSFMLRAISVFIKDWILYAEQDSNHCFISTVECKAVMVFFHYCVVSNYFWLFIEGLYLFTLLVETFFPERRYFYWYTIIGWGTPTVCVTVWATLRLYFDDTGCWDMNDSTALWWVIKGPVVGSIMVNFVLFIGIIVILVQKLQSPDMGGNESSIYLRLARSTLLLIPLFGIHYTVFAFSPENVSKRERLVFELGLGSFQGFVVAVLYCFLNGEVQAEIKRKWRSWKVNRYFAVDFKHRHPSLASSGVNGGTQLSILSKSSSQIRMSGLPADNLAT
Method: Briefly, human PAC1, VPAC1, and VPAC2 receptors expressed in CHO cells were used for all experiments. Cells were grown in 50:50 DMEM-F12 medium with 10% heat-inactivated fetal bovine serum, 1X penicillin-streptomycin supplement, and 500 μg/ml G418 (neomycin) to maintain selection (all from ThermoFisher) at 37°C with 5% CO2 atmosphere. For the cAMP assay, cells were seeded at 20,000 cells/well in a 96 well plate, recovered overnight, then serum starved for 4 h. The cells were then incubated with 500 μM IBMX for 20 min, followed by agonist concentration curves in 500 μM IBMX media for 10 min. The reaction was terminated, boiled, then collected, followed by competition with 7 μg of bovine protein kinase A (Sigma-Aldrich) and ∼1 pmol of ^3H-cAMP (PerkinElmer). The assay was incubated at room temp for 1 h, then collected onto GF/B filter plates and the data read using a MicroBeta2 scintillation counter (PerkinElmer).

Molecule | Emax (human VPAC1 receptor; CHO; read-out: VPAC1 Emax) [%] | Emax (human PAC1 receptor) [%] | other results
CCC[C@H](NC(=O)[C@H](CCC(N)=O)NC(=O)[C@H](CCCCN)NC(=O)[C@H](CCCNC(=N)N)NC(=O)[C@H](Cc1ccc(O)cc1)NC(=O)[C@H](CCCNC(=N)N)NC(=O)[C@H](CO)NC(=O)[C@H](Cc1ccc(O)cc1)NC(=O)[C@H](CO)NC(=O)[C@H](CC(=O)O)NC(=O)[C@H](C)NC(=O)[C@H](Cc1ccccc1)NC(=O)[C@@H](NC(=O)CNC(=O)[C@H](CC(=O)O)NC(=O)[C@@H](CO)NC(=O)[C@@H](N)Cc1c[nH]cn1)[C@@H](C)CC)C(=O)N[C@@H](C)C(=O)N[C@H](C(=O)N[C@@H](CCCCN)C(=O)N[C@@H](CCCCN)C(=O)N[C@@H](Cc1ccc(O)cc1)C(=O)N[C@@H](CC(C)C)C(=O)N[C@@H](C)C(=O)N[C@@H](C)C(=O)N[C@@H](CO[C@@H]1O[C@H](CO)[C@@H](O)[C@H](O)[C@H]1O)C(=O)N[C@@H](CC(C)C)C(N)=O)C(C)C [CRA3005] | 78 | – | EC50 (human VPAC1 receptor; read-out: VPAC1 EC50): 1620 nM
CC[C@H](C)[C@H](NC(=O)CNC(=O)[C@H](CC(=O)O)NC(=O)[C@@H](CO)NC(=O)[C@@H](N)Cc1c[nH]cn1)C(=O)N[C@@H](Cc1ccccc1)C(=O)N[C@H](C(=O)N[C@@H](CC(=O)O)C(=O)N[C@@H](CO)C(=O)N[C@@H](Cc1ccc(O)cc1)C(=O)N[C@@H](CO)C(=O)N[C@@H](CCCNC(=N)N)C(=O)N[C@@H](Cc1ccc(O)cc1)C(=O)N[C@@H](CCCNC(=N)N)C(=O)N[C@@H](CCCCN)C(=O)N[C@@H](CCC(N)=O)C(=O)N[C@@H](CC(C)C)C(=O)N[C@@H](C)C(=O)N[C@H](C(=O)N[C@@H](CCCCN)C(=O)N[C@@H](CCCCN)C(=O)N[C@@H](Cc1ccc(O)cc1)C(=O)N[C@@H](CC(C)C)C(=O)N[C@@H](C)C(=O)N[C@@H](C)C(=O)N[C@H](C(=O)N[C@@H](CC(C)C)C(N)=O)C(C)C)C(C)C)[C@@H](C)O [2LS72–3] | – | 95.3 ± 8.1 | EC50 (human PAC1 receptor): 48.6 ± 32 nM
CCC[C@H](NC(=O)[C@H](CCC(N)=O)NC(=O)[C@H](CCCCN)NC(=O)[C@H](CCCNC(=N)N)NC(=O)[C@H](Cc1ccc(O)cc1)NC(=O)[C@H](CCCNC(=N)N)NC(=O)[C@H](CO)NC(=O)[C@H](Cc1ccc(O)cc1)NC(=O)[C@H](CO)NC(=O)[C@H](CC(=O)O)NC(=O)[C@@H](NC(=O)[C@H](Cc1ccccc1)NC(=O)[C@@H](CCC)NC(=O)CNC(=O)[C@H](CC(=O)O)NC(=O)[C@@H](CO)NC(=O)[C@@H](N)Cc1c[nH]cn1)[C@@H](C)O)C(=O)N[C@@H](C)C(=O)N[C@H](C(=O)N[C@@H](CCCCN)C(=O)N[C@@H](CCCCN)C(=O)N[C@@H](Cc1ccc(O)cc1)C(=O)N[C@@H](CC(C)C)C(=O)N[C@@H](C)C(=O)N[C@@H](C)C(=O)N[C@H](C(=O)N[C@@H](CC(C)C)C(=O)N[C@@H](CO[C@@H]1O[C@H](CO)[C@@H](O)[C@H](O)[C@H]1O)C(N)=O)C(C)C)C(C)C [CRA3020] | 78 | 97 | –
CCC[C@H](NC(=O)[C@H](CCC(N)=O)NC(=O)[C@H](CCCCN)NC(=O)[C@H](CCCNC(=N)N)NC(=O)[C@H](Cc1ccc(O)cc1)NC(=O)[C@H](CCCNC(=N)N)NC(=O)[C@H](CO)NC(=O)[C@H](Cc1ccc(O)cc1)NC(=O)[C@H](CO)NC(=O)[C@H](CC(=O)O)NC(=O)[C@@H](NC(=O)[C@H](Cc1ccccc1)NC(=O)[C@@H](NC(=O)CCCNC(=O)[C@H](CC(=O)O)NC(=O)[C@@H](CO)NC(=O)[C@@H](N)Cc1c[nH]cn1)[C@@H](C)CC)[C@@H](C)O)C(=O)N[C@@H](C)C(=O)N[C@H](C(=O)N[C@@H](CCCCN)C(=O)N[C@@H](CCCCN)C(=O)N[C@@H](Cc1ccc(O)cc1)C(=O)N[C@@H](CC(C)C)C(=O)N[C@@H](C)C(=O)N[C@@H](C)C(=O)N[C@H](C(=O)N[C@@H](CC(C)C)C(=O)N[C@@H](CO[C@@H]1O[C@H](CO)[C@@H](O)[C@H](O)[C@H]1O)C(N)=O)C(C)C)C(C)C [CRA3006] | 103 | 78 | –
CC[C@H](C)[C@H](NC(=O)CNC(=O)[C@H](CC(=O)O)NC(=O)[C@H](CO)NC(=O)[C@@H](N)Cc1c[nH]cn1)C(=O)N[C@@H](Cc1ccccc1)C(=O)N[C@H](C(=O)N[C@@H](CC(=O)O)C(=O)N[C@@H](CO)C(=O)N[C@@H](Cc1ccc(O)cc1)C(=O)N[C@@H](CO)C(=O)N[C@@H](CCCNC(=N)N)C(=O)N[C@@H](Cc1ccc(O)cc1)C(=O)N[C@@H](CCCNC(=N)N)C(=O)N[C@@H](CCCCN)C(=O)N[C@@H](CCC(N)=O)C(=O)N[C@@H](CC(C)C)C(=O)N[C@@H](C)C(=O)N[C@H](C(=O)N[C@@H](CCCCN)C(=O)N[C@@H](CCCCN)C(=O)N[C@@H](Cc1ccc(O)cc1)C(=O)N[C@@H](CC(C)C)C(=O)N[C@@H](C)C(=O)N[C@@H](C)C(=O)N[C@H](C(=O)N[C@@H](CC(C)C)C(=O)N[C@@H](CO[C@@H]1O[C@H](CO)[C@@H](O[C@@H]2O[C@H](CO)[C@H](O)[C@H](O)[C@H]2O)[C@H](O)[C@H]1O)C(N)=O)C(C)C)C(C)C)[C@@H](C)O [Compound 2LS80Lact] | – | 144 ± 20.7 | –
CCC[C@H](NC(=O)[C@H](CCC(N)=O)NC(=O)[C@H](CCCCN)NC(=O)[C@H](CCCNC(=N)N)NC(=O)[C@H](Cc1ccc(O)cc1)NC(=O)[C@H](CCCNC(=N)N)NC(=O)[C@H](CO)NC(=O)[C@H](Cc1ccc(O)cc1)NC(=O)[C@H](CO)NC(=O)[C@H](CC(=O)O)NC(=O)[C@H](C)NC(=O)[C@H](Cc1ccccc1)NC(=O)[C@@H](NC(=O)CNC(=O)[C@H](CC(=O)O)NC(=O)[C@@H](CO)NC(=O)[C@@H](N)Cc1c[nH]cn1)[C@@H](C)CC)C(=O)N[C@@H](C)C(=O)N[C@H](C(=O)N[C@@H](CCCCN)C(=O)N[C@@H](CCCCN)C(=O)N[C@@H](Cc1ccc(O)cc1)C(=O)N[C@@H](CC(C)C)C(=O)N[C@@H](C)C(=O)N[C@@H](C)C(=O)N[C@H](C(=O)N[C@@H](CO[C@@H]1O[C@H](CO)[C@@H](O)[C@H](O)[C@H]1O)C(N)=O)C(C)C)C(C)C [CRA3004] | – | – | EC50 (human VPAC1 receptor): 1370 nM; Emax (human VPAC1 receptor; CHO, read-out: VPAC1 Emax): 85%
CC[C@H](C)[C@H](NC(=O)CNC(=O)[C@H](CC(=O)O)NC(=O)[C@H](CO)NC(=O)[C@@H](N)Cc1c[nH]cn1)C(=O)N[C@@H](Cc1ccccc1)C(=O)N[C@H](C(=O)N[C@@H](CC(=O)O)C(=O)N[C@@H](CO)C(=O)N[C@@H](Cc1ccc(O)cc1)C(=O)N[C@@H](CO)C(=O)N[C@@H](CCCNC(=N)N)C(=O)N[C@@H](Cc1ccc(O)cc1)C(=O)N[C@@H](CCCNC(=N)N)C(=O)N[C@@H](CCCCN)C(=O)N[C@@H](CCC(N)=O)C(=O)N[C@@H](CC(C)C)C(=O)N[C@@H](C)C(=O)N[C@H](C(=O)N[C@@H](CCCCN)C(=O)N[C@@H](CCCCN)C(=O)N[C@@H](Cc1ccc(O)cc1)C(=O)N[C@@H](CC(C)C)C(=O)N[C@@H](C)C(=O)N[C@@H](C)C(=O)N[C@H](C(=O)N[C@@H](CC(C)C)C(N)=O)C(C)C)C(C)C)[C@@H](C)O [2LS72–2] | – | 74.3 ± 9.7 | EC50 (human PAC1 receptor): 90.7 nM
PACAP6–38 [reference compound] | – | – | Antagonism of PAC1 (human PAC1 receptor; cAMP assay in CHO cells): unable to demonstrate antagonism
